Earlier results as cited in paper PMC9387934, “Randomized single oral dose phase 1 study of safety, tolerability, and pharmacokinetics of Iminosugar UV-4 Hydrochloride (UV-4B) in healthy subjects” (PLoS Neglected Tropical Diseases, 2022).

Assays:
[1] = 1108 patients, average of 6 months; cited from earlier work
[2] = 212 obese patients treated for 36 months; cited from earlier work
[3] = 300 mg BID; grade 3 transaminase, CK, and LDH elevations; cited from earlier work
[4] = parameters: method as in Zavesca SmPC; conditions: ref Zavesca SmPC; cited from earlier work
[5] = parameters: method as in FDA Advisory Briefing Book for Miglustat; conditions: humans, doses of up to 1000 mg TID; ref FDA Advisory Briefing Book for Miglustat; cited from earlier work
[6] = dogs, 105 mg/kg/day given over 4 weeks; cited from earlier work
[7] = doses of 100 mg TID or less; cited from earlier work
[8] = healthy male subjects; cited from earlier work

C[C@H]1O[C@H](O[C@H]2[C@H](O)[C@@H](O)[C@@H](O[C@H]3[C@H](O)[C@@H](O)C(O)O[C@@H]3CO)O[C@@H]2CO)[C@H](O)[C@@H](O)[C@@H]1N[C@H]1C=C(CO)[C@@H](O)[C@H](O)[C@H]1O (some centres unmarked) [acarbose]
Rates of ALT elevations versus placebo [1]: no different
ALT elevations, share of patients [2]: 9%

CCCC(=O)O[C@H]1CN2CC[C@H](O)[C@@H]2[C@@H](O)[C@@H]1O [Celgosivir]
Outcome of safety and tolerability study [3]: prematurely discontinued

CCCCN1C[C@H](O)[C@@H](O)[C@H](O)[C@H]1CO [miglustat, N-butyl-Deoxynojirimycin]
NOAEL [4]: 20 mg/kg
Histamine-like findings as seen in rats [5]: no similar findings
Neurologic findings [6]: tremor and reduction or absence of corneal reflexes
Association with AST and ALT elevations [7]: does not appear to be associated
AST elevations [8]: no AST elevations
